These are literature values, as cited in US20160220518A1 (iCeutica, Inc., priority 2009, published 2016).

Where only a bound is given, the exact number is not on record here.

For this series the following is noted: in vivo.

In the case of `COc1ccc2cc([C@H](C)C(=O)O)ccc2c1` [naproxen], the “excreted in the urine as 6-0-desmethyl naproxen” value is < 1%, the “excreted in the urine as naproxen” value is given as < 1%, the “fraction of any dose excreted in the urine” value is “Approximately 95%” and the “fraction of the administered dose excreted in the feces” value was ≤ 3%.
